Laboratory results: US6379713B1, “Method of treating an itch with iodine” (priority 2001, dated 2002)

Tests used:
itch = details: cited from earlier work; for time necessary to stop the immediate itch: topical application
itching skin = experiment: rubbing iodine condensate on cotton fiber against itching skin; format: in vivo, mammal
Protocol: A concentration of iodine in the range of 0.01 to 2 mg/inch^2 of skin surface is found to provide analgesia. An applicator useful for carrying and discharging the analgesic element, in its amorphous form, has been made by loading cotton fiber over a bed of hard iodine crystals sitting at the bottom of a fuming chamber. The bottom of the fiber stack is placed in contact to the top of the iodine bed. By warming the crystals, the reservoir fiber is charged with a fine, soft, rising tan colored sublimate of the hard crystal. At a temperature of 35.deg.C., 2 days is sufficient to charge a fiber with sublimated iodine in a range, by weight, of 1 to 30 mg/g of the wipe fiber. The charged fiber has a tan color, appearing as of having been dipped in liquid iodophor and then dried. Individual crystals of iodine are not readily observed and the charged wipe feels softer than the original fiber. On dipping the charged fiber in water, its tan coloration disappears.
Itching skin is found to be efficiently treated by rubbing the cotton fiber coated with condensed iodine against the itch.
The skin is not irritated by treatment from a wipe preferably comprising about 10 mg of condensate per gram of fiber comprising cotton. […] A preferred treatment supplies about 0.05 to 1 mg/inch^2 of skin. An iodine concentration of over 2 mg/inch^2 of skin begins to cause pain, while still relieving the itch.

SMILES: CN(C)CCOC(c1ccccc1)c1ccccc1 [diphenhydramine]
- time necessary to stop the immediate itch (itch): about 15 minutes

SMILES: COC1=CC(=O)C[C@@H](C)[C@]12Oc1c(Cl)c(OC)cc(OC)c1C2=O [griseofulvin]
- time necessary to stop the immediate itch (time to disinfect) (itch; antibiotic composition): several days

SMILES: CCOC(=O)c1ccc(N)cc1 [benzocaine]
- time necessary to stop the immediate itch (itch): ≤ 5 min

SMILES: CC(=O)OCC(=O)[C@@]1(O)CC[C@H]2[C@@H]3CCC4=CC(=O)CC[C@]4(C)[C@H]3[C@@H](O)C[C@@]21C [hydrocortisone acetate]
- time necessary to stop the immediate itch (itch): about 15 minutes

SMILES: II [iodine]
- time to relief from an itch after application (itching skin; amorphous tan condensate, single treatment): ≤ 1 min
- time to relieve the urge to scratch after application (itching skin; cotton fiber coated with condensed iodine, rubbed in forceful back and forth motion): within three minutes
- iodine concentration on skin that begins to cause pain (itching skin; while still relieving the itch): over 2 mg/inch^2
- skin irritation (itching skin; wipe with about 10 mg of condensate per gram of cotton fiber): not irritated
